Experimental data from the supplement of paper PMC11061612.

Tests used:
Assay in all cases: combination Emax (second highest fraction inhibited in the dose matrix, 72 h); higher = more inhibition; extreme values may be limits of the assay
[1] = system: KOPN-8 (B-Lymphoblastic Leukemia)
How it was run: (§1)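 After 24 hours at 37°C and 5% CO2 in 1536-well plates, cells in DMEM/F12 or RPMI plus 10% FBS received two-drug dose matrices for 72 hours. Viability came from CellTiter-Glo 2.0 luminescence and was scaled as inhibition, anchored at 0 by vehicle wells and at 1 by blank wells. Combination Emax is taken as the second-highest inhibition in the matrix, and Bliss excess as the observed combination effect less EA + EB − EA·EB, with EA and EB the single-agent effects.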

[2] = system: HCC2998 (Colorectal Carcinoma)
How it was run: as §1

[3] = system: ALL-SIL (T-Lymphoblastic Leukemia)
How it was run: as §1

[4] = system: EW-1 (Ewing's Sarcoma)
How it was run: as §1

[5] = system: KMRC-1 (Kidney Carcinoma)
How it was run: as §1

[6] = system: NCI-H1993 (Lung Adenocarcinoma)
How it was run: as §1

[7] = system: MDA-MB-453 (Breast Carcinoma)
How it was run: as §1

[8] = system: A4-Fuk (B-Lymphoblastic Leukemia)
How it was run: as §1

[9] = system: ML-2 (Acute Myeloid Leukemia)
How it was run: as §1

[10] = system: Hey (Ovarian Carcinoma)
How it was run: as §1

[11] = system: KGN (Other Solid Carcinomas)
How it was run: as §1

[12] = system: MOLT-4 (T-Lymphoblastic Leukemia)
How it was run: as §1

[13] = system: COLO-679 (Melanoma)
How it was run: as §1

[14] = system: Mo-T (Other Blood Carcinomas)
How it was run: as §1

[15] = system: NCI-H650 (Lung Adenocarcinoma)
How it was run: as §1

[16] = system: MV-4-11 (Acute Myeloid Leukemia)
How it was run: as §1

[17] = system: CADO-ES1 (Ewing's Sarcoma)
How it was run: as §1

[18] = system: ME-180 (Cervical Carcinoma)
How it was run: as §1

[19] = system: HAL-01 (B-Lymphoblastic Leukemia)
How it was run: as §1

[20] = system: OACM5-1 (Esophageal Adenocarcinoma)
How it was run: as §1

SMILES: COc1cccc(OCCCN)c1-c1cc(Nc2cnc(C#N)cn2)n[nH]1 [Prexasertib] + CCc1c2c(nc3ccc(O)cc13)-c1cc3c(c(=O)n1C2)COC(=O)[C@]3(O)CC [SN-38] (first compound max 1 µM, 7x7, partner max 0.3 µM)
- combination Emax [1]: 1
- combination Emax [2]: 1
- combination Emax [3]: 1
- combination Emax [4]: 0.995
- combination Emax [5]: 0.455
- combination Emax [6]: 0.938
- combination Emax [7]: 0.929
- combination Emax [8]: 0.972
- combination Emax [9]: 1
- combination Emax [10]: 0.843
- combination Emax [11]: 0.89
- combination Emax [12]: 1
- combination Emax [13]: 0.826
- combination Emax [14]: 0.698
- combination Emax [15]: 0.815
- combination Emax [16]: 1
- combination Emax [17]: 0.996
- combination Emax [18]: 0.948
- combination Emax [19]: 1
- combination Emax [20]: 0.854

SMILES: CCN(CCO)CCCOc1ccc2c(Nc3cc(CC(=O)Nc4cccc(F)c4)[nH]n3)ncnc2c1 [AZD2811] + C[C@@H]1COCCN1C2=NC(=NC(=C2)C3(CC3)[S@](=N)(=O)C)C4=C5C=CNC5=NC=C4 [AZD6738] (first compound max 1 µM, 7x7, partner max 10 µM)
- combination Emax [1]: 0.855
- combination Emax [2]: 0.777
- combination Emax [3]: 0.981
- combination Emax [4]: 0.852
- combination Emax [5]: 0.566
- combination Emax [6]: 0.513
- combination Emax [7]: 0.807
- combination Emax [8]: 0.747
- combination Emax [9]: 0.985
- combination Emax [10]: 0.711
- combination Emax [11]: 0.822
- combination Emax [12]: 1
- combination Emax [13]: 0.679
- combination Emax [14]: 0.556
- combination Emax [15]: 0.117
- combination Emax [16]: 0.998
- combination Emax [17]: 0.843
- combination Emax [18]: 0.43
- combination Emax [19]: 0.99
- combination Emax [20]: 0.44

SMILES: CCN(CCO)CCCOc1ccc2c(Nc3cc(CC(=O)Nc4cccc(F)c4)[nH]n3)ncnc2c1 [AZD2811] + O=C(c1cc(Cc2n[nH]c(=O)c3ccccc23)ccc1F)N1CCN(C(=O)C2CC2)CC1 [Olaparib] (first compound max 1 µM, 7x7, partner max 10 µM)
- combination Emax [1]: 0.709
- combination Emax [2]: 0.247
- combination Emax [3]: 0.953
- combination Emax [4]: 0.709
- combination Emax [5]: 0.19
- combination Emax [6]: 0.191
- combination Emax [7]: 0.112
- combination Emax [8]: 0.437
- combination Emax [9]: 0.835
- combination Emax [10]: 0.319
- combination Emax [11]: 0.629
- combination Emax [12]: 0.974
- combination Emax [13]: 0.281
- combination Emax [14]: 0.369
- combination Emax [15]: 0.164
- combination Emax [16]: 0.961
- combination Emax [17]: 0.531
- combination Emax [18]: 0.252
- combination Emax [19]: 0.37
- combination Emax [20]: 0.247
